In US12076363B2, “Peptide epoxyketone proteasome inhibitors in combination with PIM kinase inhibitors for treatment of cancers” (ONYX PHARMACEUTICALS, INC., priority 2013, dated 2024) one finds Ubiquitin fold increases data, which are given here for two compounds.

The test system of test [1] is PIM-2. Briefly: PIM-2 ubiquitination (K-ε-GG ubiquitin remnant profiling) after proteasome inhibitor treatment, U266 cells. The conditions noted are these: PIM-2 lysine 61; U266 (4 hr); 125 nM; vs DMSO control. Format: cell-based. Here is the method: (§1) Multiple myeloma cells were used to identify pro-survival proteins that were stabilized upon carfilzomib exposure by monitoring an increase in ubiquitination at specific sites associated with degradation. Two multiple myeloma cell lines, U266 and NCI-H929, were treated for 1 and 4 hours at 125 nM concentration of carfilzomib and bortezomib. DMSO treated cells were used as a control. The concentrations of active agents used were set at the IC80 of chymotrypsin activity inhibition and 48 hr cytotoxicity. The subunit inhibition profile obtained for these concentrations in vitro mimicked the subunit inhibition profile for carfilzomib in patients treated with a dose of 27 mg/m^2. Washed cell pellets were processed and profiled for ubiquitin modified proteins using a specific di-glycine antibody (PTMScan® Ubiquitin Remnant Motif (K-ε-GG) Kit #5562) that recognizes all lysine ubiquitin linkages on ubiquitin ligase substrates. All lysines on a protein that are modified with ubiquitin can be identified by this approach, and the lysines distal from the phosphorylation sites can then be associated with degradation. […] The increase in ubiquitin was also time dependent in NCI-H929 (Table 1).

Test [2] relates to PIM-2. Briefly: PIM-2 ubiquitination (K-ε-GG ubiquitin remnant profiling) after proteasome inhibitor treatment, NCI-H929 cells. It is filed as cell-based. The conditions noted are these: PIM-2 lysine 61, 125 nM, vs DMSO control. Here is the method: as §1

In the case of `CC(C)C[C@H](NC(=O)[C@H](Cc1ccccc1)NC(=O)c1cnccn1)B(O)O` [BTZ, bortezomib], the Ubiquitin fold increases with PIM-2 [1] was 31.5 fold; in the test with PIM-2 [2] (H929 (1 hr)) it was 11 fold; in the test with PIM-2 [2] (H929 (4 hr)), 21.4 fold.

In the case of `CC(C)C[C@H](NC(=O)[C@H](CCc1ccccc1)NC(=O)CN1CCOCC1)C(=O)N[C@@H](Cc1ccccc1)C(=O)N[C@@H](CC(C)C)C(=O)[C@@]1(C)CO1` [CFZ, carfilzomib], the Ubiquitin fold increases with PIM-2 [1] is listed as 34.6 fold; with PIM-2 [2] (H929 (1 hr)) it was 10.7 fold; in the test on PIM-2 [2] (H929 (4 hr)), 24.9 fold.
